In the supplement of paper PMC8149375:

How the values were obtained:
Conditions in all cases: treatment: drug + dasatinib (fixed dose, not stated); 5 days
[1] = system: CAKI-1; experiment: AUC of dose-response viability curve, drug + dasatinib, normalised to DMSO (arbitrary (AUC of normalised viability)); higher = less growth inhibition
Description: (§1)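 Primary HTS combination arm: 8 RCC cell lines treated with 8 doses (up to 10 uM) of each library drug plus a fixed dose of dasatinib (dose not stated) for 5 days; viability read by CellTiter-Glo and normalised to DMSO. GI50 was fitted with XLfit, AUC is the area under the dose-response curve, and minimum viability is the lowest fraction of DMSO viability across doses.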

[2] = system: TK-10; experiment: as above
Description: as §1

[3] = system: UO-31; experiment: as above
Description: as §1

[4] = system: 786-O; experiment: as above
Description: as §1

[5] = system: SN12C; experiment: as above
Description: as §1

[6] = system: 769-P; experiment: as above
Description: as §1

[7] = system: ACHN; experiment: as above
Description: as §1

[8] = system: A498; experiment: as above
Description: as §1

[9] = system: CAKI-1; experiment: GI50 of drug in presence of dasatinib; higher = less potent
Description: as §1

[10] = system: TK-10; experiment: as above
Description: as §1

[11] = system: UO-31; experiment: as above
Description: as §1

[12] = system: 786-O; experiment: as above
Description: as §1

[13] = system: SN12C; experiment: as above
Description: as §1

[14] = system: 769-P; experiment: as above
Description: as §1

[15] = system: ACHN; experiment: as above
Description: as §1

[16] = system: A498; experiment: as above
Description: as §1

[17] = system: CAKI-1; experiment: minimum viability across doses, drug + dasatinib, relative to DMSO (fraction); higher = less growth inhibition
Description: as §1

[18] = system: TK-10; experiment: as above
Description: as §1

[19] = system: UO-31; experiment: as above
Description: as §1

[20] = system: 786-O; experiment: as above
Description: as §1

[21] = system: SN12C; experiment: as above
Description: as §1

[22] = system: 769-P; experiment: as above
Description: as §1

[23] = system: ACHN; experiment: as above
Description: as §1

[24] = system: A498; experiment: as above
Description: as §1

Structure (SMILES)	GI50 of drug [12] [µM]	GI50 of drug [15] [µM]	AUC of dose-response viability curve [1]	AUC of dose-response viability curve [2]	AUC of dose-response viability curve [3]	AUC of dose-response viability curve [4]	AUC of dose-response viability curve [5]	AUC of dose-response viability curve [6]	AUC of dose-response viability curve [7]	AUC of dose-response viability curve [8]	GI50 of drug [9] [µM]	GI50 of drug [10] [µM]	GI50 of drug [11] [µM]	GI50 of drug [13] [µM]	GI50 of drug [14] [µM]	GI50 of drug [16] [µM]	minimum viability across doses [17]	minimum viability across doses [18]	minimum viability across doses [19]	minimum viability across doses [20]	minimum viability across doses [21]	minimum viability across doses [22]	minimum viability across doses [23]	minimum viability across doses [24]
COc1ccc2c(OCc3nnc4ccc(-c5ccccc5)nn34)ccnc2c1 [AMG-208] + Cc1nc(Nc2ncc(C(=O)Nc3c(C)cccc3Cl)s2)cc(N2CCN(CCO)CC2)n1 [dasatinib]	> 10	> 10	2.24	2.54	3.91	2.6	2.52	2.4	2.07	3.32	> 10	> 10	> 10	> 10	> 10	> 10	0.613	0.642	0.987	0.68	0.688	0.634	0.544	0.805
C=CC(=O)Nc1ccc2ncnc(Nc3ccc(OCc4cccc(F)c4)c(Cl)c3)c2c1.Cc1ccc(S(=O)(=O)O)cc1 [AST-1306] + Cc1nc(Nc2ncc(C(=O)Nc3c(C)cccc3Cl)s2)cc(N2CCN(CCO)CC2)n1 [dasatinib]	1.11	0.0847	2.04	2.01	3.51	1.99	2.22	1.82	1.62	3.44	1.68	0.406	3.17	5.35	0.321	9.99	0.00665	0.0976	0.06	0.0714	0.0534	0.0288	0.138	0.495
Cc1cc2c(C(C)C)c(O)c(O)c(C=O)c2c(O)c1-c1c(C)cc2c(C(C)C)c(O)c(O)c(C=O)c2c1O [AT101] + Cc1nc(Nc2ncc(C(=O)Nc3c(C)cccc3Cl)s2)cc(N2CCN(CCO)CC2)n1 [dasatinib]	> 10	1.85	2.15	2.33	3.9	2.18	2.62	2.6	1.84	3.27	3.35	> 10	> 10	> 10	> 10	> 10	0.106	0.517	0.947	0.265	0.667	0.636	0.133	0.835
O=C(NC1CCNCC1)c1n[nH]cc1NC(=O)c1c(Cl)cccc1Cl [AT7519] + Cc1nc(Nc2ncc(C(=O)Nc3c(C)cccc3Cl)s2)cc(N2CCN(CCO)CC2)n1 [dasatinib]	0.218	0.271	1.64	2.09	2.79	1.52	1.59	2.02	1.44	2.2	0.347	0.61	0.864	0.435	1.13	0.337	0.0385	0.179	0.00867	0.00538	0.00559	0.0219	0.00318	0.00778

Continued, in another order:

GI50 of drug [12] [µM]	GI50 of drug [15] [µM]	Structure (SMILES)	AUC of dose-response viability curve [1]	AUC of dose-response viability curve [2]	AUC of dose-response viability curve [3]	AUC of dose-response viability curve [4]	AUC of dose-response viability curve [5]	AUC of dose-response viability curve [6]	AUC of dose-response viability curve [7]	AUC of dose-response viability curve [8]	GI50 of drug [9] [µM]	GI50 of drug [10] [µM]	GI50 of drug [11] [µM]	GI50 of drug [13] [µM]	GI50 of drug [14] [µM]	GI50 of drug [16] [µM]	minimum viability across doses [17]	minimum viability across doses [18]	minimum viability across doses [19]	minimum viability across doses [20]	minimum viability across doses [21]	minimum viability across doses [22]	minimum viability across doses [23]	minimum viability across doses [24]
0.0072	0.00854	Cc1csc(-c2nnc(Nc3ccc(Oc4ncccc4-c4ccnc(N)n4)cc3)c3ccccc23)c1 [AMG 900] + Cc1nc(Nc2ncc(C(=O)Nc3c(C)cccc3Cl)s2)cc(N2CCN(CCO)CC2)n1 [dasatinib]	1.32	2.2	4.1	0.863	1.93	1.44	1.25	3.08	0.0154	6.46	> 10	0.383	0.0361	> 10	0.286	0.459	0.604	0.117	0.319	0.211	0.186	0.562
0.191	0.367	O=C1NC(=O)[C@@H](c2cn3c4c(cccc24)CCC3)[C@@H]1c1c[nH]c2ccccc12 [ARQ 197 (Tivantinib)] + Cc1nc(Nc2ncc(C(=O)Nc3c(C)cccc3Cl)s2)cc(N2CCN(CCO)CC2)n1 [dasatinib]	1.56	2.11	2.97	1.42	2.01	1.87	1.73	2.42	0.178	1.46	1.98	1.87	0.509	0.975	0.0929	0.298	0.03	0.00404	0.181	0.0843	0.147	0.133
0.577	0.53	Clc1ccc(C2(c3ccc(-c4cn[nH]c4)cc3)CCNCC2)cc1 [AT7867] + Cc1nc(Nc2ncc(C(=O)Nc3c(C)cccc3Cl)s2)cc(N2CCN(CCO)CC2)n1 [dasatinib]	1.96	2.49	2.34	1.85	2.43	2.16	1.69	3.22	0.762	1.97	0.348	3.46	1.69	8.31	0.094	0.0469	0.00689	0.00775	0.192	0.124	0.0726	0.135
